Experimental data from PubChem BioAssay AID1919002 (Molecular Pharmacology Branch, DTP, NCI, 2023).
Where “and” joins values, the source holds several entries; their conditions need not be identical. Identical values can stand only once.

Tested on: 743489-274-T-PDC complex spheroid growth
Assay: Anticancer human tumor 743489-274-T-PDC patient-derived renal cell carcinoma cell line growth inhibition [AhR]
Details: for viability, T/C: stronger effect = lower value; active = viability on the fitted dose curve at most 10% of control; inactive = the rest
Source text: Multicellular complex tumor spheroid response to aryl hydrocarbon receptor antagonists in combination with a variety of drugs and investigational agents in selected tumor cell lines
The current study was undertaken to assess response to aryl hydrocarbon receptor antagonists in combination with standard-of-care drugs and investigational agents in solid tumor complex spheroid models. Complex spheroids include a stromal component modeled by human endothelial cells (HUVEC) and fibroblasts modeled by human mesenchymal stem cells (MSCs). The concentration ranges selected for each drug and investigational agent were based upon clinically achievable concentrations if the clinical Cmax of the agent was known.
Compounds. The drugs and investigational agents: BAY 2416964 (NSC825713), GNF351 (NSC835774), CH-223191 (NSC835775), CPI-455 (NSC825282), aza-TdCyd (NSC777586), decitabine (NSC127716), belinostat (NSC758774), entinostat (NSC756642), pevonedistat (NSC761192), tazemetostat (NSC777109), talazoparib (NSC765396), olaparib (NSC753686), selinexor (NSC780203), nedisertib (M3814, NSC802822), bortezomib (NSC756655), venetoclax (NSC766270), doxorubicin (NSC123127), elimusertib (BAY189344, NSC800525), ceralasertib (AZD6738, NSC777638), TAK-243 (NSC785004), alisertib (NSC759677), etoposide (NSC141540), topotecan (NSC609699), eribulin (NSC707389), gemcitabine (NSC613327), carboplatin (NSC241240), cisplatin (NSC119875), and SN-38 (NSC673596) were obtained from the National Cancer Institute (NCI) Developmental Therapeutics Program Chemical Repository (32). The FDA-approved anticancer drug set is available from the Developmental Therapeutics Program at https://dtp.cancer.gov/organization/dscb/obtaining/available plates.htm. […] The stock solutions were prepared in dimethyl sulfoxide (DMSO, Sigma-Aldrich, St. Louis, MO, cat. D2650), except for the platinum compounds which were prepared in saline (Quality Biological, Gaithersburg, MD, cat. 114-055-101), at 800-fold the tested concentration and stored at -70 degrees C prior to their use. All drugs and investigational agents were tested over a range starting from a high concentration at or near the clinical Cmax and decreasing in half-log increments. If the clinical Cmax for an agent had not been determined, the highest concentration tested was 10 microM (Table 1).
Cell Culture. All cells were maintained in an incubator at 37 degrees C and 5% CO2 with 95% humidity. The PDC lines were cultured according to standard operating procedures established by the NCI PDMR (https://pdmr.cancer.gov). Briefly, all PDCs were thawed and cultured in Matrigel-coated flasks prepared with a working solution of 1X Ham's F-12 nutrient mix, without supplementation (Invitrogen, Waltham, MA, cat. 11765054), 100 U/mL penicillin-streptomycin (Invitrogen, cat. 15140122), and 2.5% Matrigel (Corning Inc., Corning, NY, cat. 354248) for the first three passages. All PDCs were cultured in complete DMEM/F-12 media containing advanced DMEM/F-12 (Invitrogen, cat. 12634028), 4.9% defined fetal bovine serum, heat inactivated (HyClone Laboratories Inc., Logan, UT, cat. SH30070.03HI), 389 ng/mL hydrocortisone (Sigma-Aldrich, cat. H4001), 9.7 ng/mL human EGF recombinant protein (Invitrogen, cat. PHG0313), 23.4 microg/mL adenine (Sigma-Aldrich, cat. A2786), 97.3 U/mL penicillin-streptomycin (Invitrogen, cat. 15140122), 1.9 mM L-glutamine (Invitrogen, cat. 25030081), and 9.7 microM Y-27632 dihydrochloride (Tocris Bioscience, Bristol, United Kingdom, cat. 1254). The PDCs were cultured in complete DMEM/F12 media without 10 microM Y-27632 dihydrochloride for at least two passages prior to the screen. The established cell lines NCI-H1341 and […] were cultured in DMEM/F-12, HEPES (Invitrogen, cat. 11330032), 5% defined fetal bovine serum (HyClone Laboratories Inc., cat. SH30070.03), ITS premix universal culture supplement [insulin (5 microg/mL), transferrin (5 microg/mL), and selenious acid (5 ng/mL)] […]

[1] = curve of first compound, second compound 0.1 µM
[2] = curve of first compound, second compound 0.316 µM
[3] = curve of first compound, second compound 1 µM
[4] = curve of first compound, second compound 3.16 µM
[5] = curve of first compound, second compound 10 µM
[6] = second compound 0.1 µM, first compound 0.0316 µM
[7] = second compound 0.1 µM, first compound 0.1 µM
[8] = second compound 0.1 µM, first compound 0.316 µM
[9] = second compound 0.1 µM, first compound 1 µM
[10] = second compound 0.1 µM, first compound 3.16 µM
[11] = second compound 0.1 µM, first compound 10 µM
[12] = second compound 0.316 µM, first compound 0.0316 µM
[13] = second compound 0.316 µM, first compound 0.1 µM
[14] = second compound 0.316 µM, first compound 0.316 µM
[15] = second compound 0.316 µM, first compound 1 µM
[16] = second compound 0.316 µM, first compound 3.16 µM
[17] = second compound 0.316 µM, first compound 10 µM
[18] = second compound 1 µM, first compound 0.0316 µM
[19] = second compound 1 µM, first compound 0.1 µM
[20] = second compound 1 µM, first compound 0.316 µM
[21] = second compound 1 µM, first compound 1 µM
[22] = second compound 1 µM, first compound 3.16 µM
[23] = second compound 1 µM, first compound 10 µM
[24] = second compound 3.16 µM, first compound 0.0316 µM
[25] = second compound 3.16 µM, first compound 0.1 µM
[26] = second compound 3.16 µM, first compound 0.316 µM
[27] = second compound 3.16 µM, first compound 1 µM
[28] = second compound 3.16 µM, first compound 3.16 µM
[29] = second compound 3.16 µM, first compound 10 µM
[30] = second compound 10 µM, first compound 0.0316 µM
[31] = second compound 10 µM, first compound 0.1 µM
[32] = second compound 10 µM, first compound 0.316 µM
[33] = second compound 10 µM, first compound 1 µM
[34] = second compound 10 µM, first compound 3.16 µM
[35] = second compound 10 µM, first compound 10 µM
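Note: spheroids exposed to agents for 7 days before readout.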
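Throughout, for viability, T/C: 100% = DMSO vehicle control wells.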

COc1cc(C2c3cc4c(cc3C(OC3OC5COC(C)OC5C(O)C3O)C3COC(=O)C23)OCO4)cc(OC)c1O (configuration not stated) + Cc1ccccc1N=Nc1ccc(NC(=O)c2ccnn2C)c(C)c1
> 10000 nM: IC50 [1] | IC50 [2] | IC50 [3] | IC50 [4] | IC50 [5]
inactive: viability, T/C [6] 98.7% | viability, T/C [7] 87% | viability, T/C [8] 97.2% | viability, T/C [9] 94.4% | viability, T/C [10] 98.3% | viability, T/C [11] 79.9% | viability, T/C [12] 91.2% | viability, T/C [13] 93.6% | viability, T/C [14] 91.2% | viability, T/C [15] 88.9% | viability, T/C [16] 77.9% | viability, T/C [17] 80.7% | viability, T/C [18] 86.7% | viability, T/C [19] 93.7% | viability, T/C [20] 90.7% | viability, T/C [21] 88.9% | viability, T/C [22] 90.4% | viability, T/C [23] 74.8% | viability, T/C [24] 83.3% | viability, T/C [25] 90.2% | viability, T/C [26] 86.9% | viability, T/C [27] 78.8% | viability, T/C [28] 78.6% | viability, T/C [29] 75.8% | viability, T/C [30] 78.4% | viability, T/C [31] 81.8% | viability, T/C [32] 95.1% | viability, T/C [33] 72% | viability, T/C [34] 69.4% | viability, T/C [35] 70.7%

Nc1ccccc1NC(=O)c1ccc(CNC(=O)OCc2cccnc2)cc1 + Cc1ccccc1N=Nc1ccc(NC(=O)c2ccnn2C)c(C)c1
3670 nM: IC50 [3]
2630 nM: IC50 [4]
4620 nM: IC50 [1]
2640 nM: IC50 [2]
2260 nM: IC50 [5]
inactive: viability, T/C [6] 101% | viability, T/C [7] 96.6% | viability, T/C [8] 95.9% | viability, T/C [9] 80.2% | viability, T/C [10] 63% | viability, T/C [11] 25.4% | viability, T/C [12] 99.9% | viability, T/C [13] 99.7% | viability, T/C [14] 84% | viability, T/C [15] 79.7% | viability, T/C [16] 42.7% | viability, T/C [17] 23.8% | viability, T/C [18] 89.8% | viability, T/C [19] 95% | viability, T/C [20] 88.2% | viability, T/C [21] 74.3% | viability, T/C [22] 54.7% | viability, T/C [23] 24.5% | viability, T/C [24] 93.3% | viability, T/C [25] 98% | viability, T/C [26] 88.3% | viability, T/C [27] 70% | viability, T/C [28] 47% | viability, T/C [29] 28.5% | viability, T/C [30] 86.9% | viability, T/C [31] 95.9% | viability, T/C [32] 88.4% | viability, T/C [33] 66.2% | viability, T/C [34] 44.4% | viability, T/C [35] 28.6%

O=C(c1cc(Cc2n[nH]c(=O)c3ccccc23)ccc1F)N1CCN(C(=O)C2CC2)CC1
inactive: viability, T/C (compound 0.0316 µM) 95.7% and 110% and 102% | viability, T/C (compound 0.1 µM) 101% and 105% and 113% | viability, T/C (compound 0.316 µM) 103% (2×) and 97.1% | viability, T/C (compound 1 µM) 92.9% and 102% and 112% | viability, T/C (compound 3.16 µM) 102% and 101% and 109% | viability, T/C (compound 10 µM) 96.3% and 110% and 106%
> 10000 nM: IC50 (curve of compound)

Nc1ncn(C2CC(O)C(CO)S2)c(=O)n1 (configuration not stated) + Cc1cncc(-c2nc(NCCc3c[nH]c4ccccc34)c3ncn(C(C)C)c3n2)c1
inactive: viability, T/C (second compound 0.1 µM, first compound 0.000949 µM) 107% | viability, T/C (second compound 0.1 µM, first compound 0.003 µM) 105% | viability, T/C (second compound 0.1 µM, first compound 0.00949 µM) 104% | viability, T/C (second compound 0.1 µM, first compound 0.03 µM) 95.8% | viability, T/C (second compound 0.1 µM, first compound 0.0949 µM) 96.5% | viability, T/C (second compound 0.1 µM, first compound 0.3 µM) 93.1% | viability, T/C (second compound 0.316 µM, first compound 0.000949 µM) 96.6% | viability, T/C (second compound 0.316 µM, first compound 0.003 µM) 99.8% | viability, T/C (second compound 0.316 µM, first compound 0.00949 µM) 104% | viability, T/C (second compound 0.316 µM, first compound 0.03 µM) 98.3% | viability, T/C (second compound 0.316 µM, first compound 0.0949 µM) 84.7% | viability, T/C (second compound 0.316 µM, first compound 0.3 µM) 101% | viability, T/C (second compound 1 µM, first compound 0.000949 µM) 108% | viability, T/C (second compound 1 µM, first compound 0.003 µM) 100% | viability, T/C (second compound 1 µM, first compound 0.00949 µM) 106% | viability, T/C (second compound 1 µM, first compound 0.03 µM) 106% | viability, T/C (second compound 1 µM, first compound 0.0949 µM) 98.8% | viability, T/C (second compound 1 µM, first compound 0.3 µM) 103% | viability, T/C (second compound 3.16 µM, first compound 0.000949 µM) 114% | viability, T/C (second compound 3.16 µM, first compound 0.003 µM) 106% | viability, T/C (second compound 3.16 µM, first compound 0.00949 µM) 119% | viability, T/C (second compound 3.16 µM, first compound 0.03 µM) 118% | viability, T/C (second compound 3.16 µM, first compound 0.0949 µM) 109% | viability, T/C (second compound 3.16 µM, first compound 0.3 µM) 96.2% | viability, T/C (second compound 10 µM, first compound 0.000949 µM) 138% | viability, T/C (second compound 10 µM, first compound 0.003 µM) 115% | viability, T/C (second compound 10 µM, first compound 0.00949 µM) 117% | viability, T/C (second compound 10 µM, first compound 0.03 µM) 124% | viability, T/C (second compound 10 µM, first compound 0.0949 µM) 112% | viability, T/C (second compound 10 µM, first compound 0.3 µM) 125%
> 300 nM: IC50 [1] | IC50 [2] | IC50 [3] | IC50 [4] | IC50 [5]
